Test results taken from ChEMBL document CHEMBL4616595, “Targeted suppression of metastasis regulatory transcription factor SOX2 in various cancer cell lines using a sequence-specific designer pyrrole-imidazole polyamide” (Bioorg Med Chem, 2020).

System: SW-620
Assay: Antiinvasive activity in human SW620 cells assessed as reduction in cell invasion at 2 uM incubated for 72 hrs by crystal violet staining based assay relative to untreated control
Type: functional

C=C1[C@@H](C)[C@H]2[C@H](Cc3ccccc3)NC(=O)[C@]23[C@H](OC(C)=O)/C=C/[C@@](C)(O)C(=O)[C@@H](C)C/C=C/[C@H]3[C@@H]1O [CYTOCHALASIN D]
fold change (FC): 4
